Results taken from patent US20110306597A1, “Nicotinamide Derivatives” (priority 2008, published 2011).

Target: human recombinant H-PGDS (Homo sapiens, UniProt O60760)
Assay: Fluorescence Intensity h-PGDS TBA Enzyme Assay
Type: biochemical
Conditions: 1:175,000 human recombinant H-PGDS, highest inhibitor concentration typically 1 μM
Summary of the method: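 Readout is PGH2 depletion: after a 42 s reaction with 5.0 μM PGH2 and 2.5 mM glutathione (pH 8.0 Tris, 10 min inhibitor preincubation), Fe(II) converts leftover PGH2 to MDA, which forms a fluorescent TBA complex. IC50s come from 11-point, 3-fold duplicate curves, 4-parameter fit.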

Sequence of human recombinant H-PGDS (O60760 whole entry): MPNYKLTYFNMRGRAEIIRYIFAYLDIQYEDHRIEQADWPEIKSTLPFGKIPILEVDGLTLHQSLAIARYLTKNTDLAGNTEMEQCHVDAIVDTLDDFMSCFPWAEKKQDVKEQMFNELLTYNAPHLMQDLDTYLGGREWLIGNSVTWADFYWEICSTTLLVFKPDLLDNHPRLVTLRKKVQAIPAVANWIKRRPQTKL

| Compound | IC50 |
| --- | --- |
| CN(C)CCNC(=O)c1ccc(-c2ccc(F)cc2)nc1 [Example 467, N-[2-(Dimethylamino)ethyl]-6-(4-fluorophenyl)nicotinamide] | ≥ 1000 nM |
| CCC1CCN(CCNC(=O)c2ccc(-c3ccc(F)cc3)nc2)CC1 [Example 468, N-[2-(4-Ethylpiperidin-1-yl)ethyl]-6-(4-fluorophenyl)nicotinamide] | 688 nM |
| O=C(NCCN1CCCC1)c1ccc(-c2ccc(F)cc2)nc1 [Example 469, 6-(4-Fluorophenyl)-N-(2-pyrrolidin-1-ylethyl)nicotinamide] | ≥ 1000 nM |
| CSc1ccc(CNC(=O)c2ccc(-c3ccc(F)cc3)nc2)cc1 [Example 470, 6-(4-Fluorophenyl)-N-[4-(methylthio)benzyl]nicotinamide] | ≥ 1000 nM |
| CCOC(=O)CC[C@H](NC(=O)c1ccc(-c2ccc(F)cc2)nc1)C(=O)OCC [Example 471, Diethyl N-{[6-(4-fluorophenyl)pyridin-3-yl]carbonyl}-L-glutamate] | 192 nM |
| O=C(NCc1cc(F)cc2c1OCOC2)c1ccc(-c2ccc(F)cc2)nc1 [Example 472, N-[(6-Fluoro-4H-1,3-benzodioxin-8-yl)methyl]-6-(4-fluorophenyl)nicotinamide] | 256 nM |
| O=C(NCc1ccco1)c1ccc(-c2ccc(F)cc2)nc1 [Example 473, 6-(4-Fluorophenyl)-N-(2-furylmethyl)nicotinamide] | 381 nM |
| O=C(NC1CCN(Cc2ccc(Cl)cc2)C1=O)c1ccc(-c2ccc(F)cc2)nc1 (centres unmarked) [Example 474, N-[1-(4-Chlorobenzyl)-2-oxopyrrolidin-3-yl]-6-(4-fluorophenyl)nicotinamide] | 734 nM |
| O=C(NCc1ccc(Cl)c(Cl)c1)c1ccc(-c2ccc(F)cc2)nc1 [Example 475, N-(3,4-Dichlorobenzyl)-6-(4-fluorophenyl)nicotinamide] | ≥ 1000 nM |
| O=C(NCCN1CCN(Cc2ccccc2)CC1)c1ccc(-c2ccc(F)cc2)nc1 [Example 476, N-[2-(4-Benzylpiperazin-1-yl)ethyl]-6-(4-fluorophenyl)nicotinamide] | ≥ 1000 nM |
| O=C(NCCN1CCCC1=O)c1ccc(-c2ccc(F)cc2)nc1 [Example 477, 6-(4-Fluorophenyl)-N-[2-(2-oxopyrrolidin-1-yl)ethyl]nicotinamide] | 895 nM |
| COc1ccc(CNC(=O)c2ccc(-c3ccc(F)cc3)nc2)cc1 [Example 478, 6-(4-Fluorophenyl)-N-(4-methoxybenzyl)nicotinamide] | 377 nM |
| O=C(NC1CCN(Cc2ccc(Cl)c(Cl)c2)C1=O)c1ccc(-c2ccc(F)cc2)nc1 (centres unmarked) [Example 479, N-[1-(3,4-Dichlorobenzyl)-2-oxopyrrolidin-3-yl]-6-(4-fluorophenyl)nicotinamide] | 896 nM |
| Cc1ccc(CNC(=O)c2ccc(-c3ccc(F)cc3)nc2)cc1 [Example 480, 6-(4-Fluorophenyl)-N-(4-methylbenzyl)nicotinamide] | 327 nM |
| COc1cccc(-c2ccc(C(=O)NCc3ccc(S(N)(=O)=O)cc3)cn2)c1 [Example 481, N-[4-(Aminosulfonyl)benzyl]-6-(3-methoxyphenyl) nicotinamide] | 365 nM |
| O=C(NCc1ccc(F)cc1)c1ccc(-c2ccc(F)cc2)nc1 [Example 482, N-(4-Fluorobenzyl)-6-(4-fluorophenyl)nicotinamide] | 527 nM |
| COc1cccc(-c2ccc(C(=O)NCc3ccc(Cl)c(Cl)c3)cn2)c1 [Example 483, N-(3,4-Dichlorobenzyl)-6-(3-methoxyphenyl) nicotinamide] | 151 nM |
| COc1cccc(-c2ccc(C(=O)NCc3ccc(C)cc3)cn2)c1 [Example 484, 6-(3-Methoxyphenyl)-N-(4-methylbenzyl)nicotinamide] | 178 nM |
| COc1cccc(-c2ccc(C(=O)Nc3cccnc3)cn2)c1 [Example 485, 6-(3-Methoxyphenyl)-N-pyridin-3-ylnicotinamide] | 201 nM |
| COc1cccc(-c2ccc(C(=O)NCCNc3ccccc3)cn2)c1 [Example 486, N-(2-Anilinoethyl)-6-(3-methoxyphenyl)nicotinamide] | 204 nM |
| COc1cccc(-c2ccc(C(=O)NCCC3CCN(C)CC3)cn2)c1 [Example 487, 6-(3-Methoxyphenyl)-N-[2-(1-methylpiperidin-4-yl)ethyl]nicotinamide] | ≥ 1000 nM |
| Cc1cccc(-c2ccc(C(=O)Nc3cccnc3)cn2)c1 [Example 488, 6-(3-Methylphenyl)-N-pyridin-3-ylnicotinamide] | 11.4 nM |
| Cc1cccc(-c2ccc(C(=O)NCc3ccc(Br)cc3)cn2)c1 [Example 489, N-(4-Bromobenzyl)-6-(3-methylphenyl)nicotinamide] | 214 nM |
| Cc1cccc(-c2ccc(C(=O)NCCNc3ccccc3)cn2)c1 [Example 490, N-(2-Anilinoethyl)-6-(3-methylphenyl)nicotinamide] | 39.9 nM |
| Cc1ccccc1CNC(=O)c1ccc(-c2ccc(F)cc2)nc1 [Example 491, 6-(4-Fluorophenyl)-N-(2-methylbenzyl)nicotinamide] | 139 nM |

| Compound | IC50 |
| --- | --- |
| CCC(C)NC(=O)c1ccc(-c2ccc(F)cc2)nc1 (centres unmarked) [Example 492, N-sec-Butyl-6-(4-fluorophenyl)nicotinamide] | ≥ 1000 nM |
| O=C(NCCN1CCCCC1=O)c1ccc(-c2ccc(F)cc2)nc1 [Example 493, 6-(4-Fluorophenyl)-N-[2-(2-oxopiperidin-1-yl)ethyl]nicotinamide] | 980 nM |
| COC(=O)CCNC(=O)c1ccc(-c2ccc(F)cc2)nc1 [Example 494, Methyl N-{[6-(4-fluorophenyl)pyridin-3-yl]carbonyl}-beta-alaninate] | 758 nM |
| CCOC(=O)C1(NC(=O)c2ccc(-c3ccc(F)cc3)nc2)CCOCC1 [Example 495, Ethyl 4-({[6-(4-fluorophenyl)pyridin-3-yl]carbonyl}amino)tetrahydro-2H-pyran-4-carboxylate] | ≥ 1000 nM |
| Cc1noc(CCNC(=O)c2ccc(-c3ccc(F)cc3)nc2)n1 [Example 496, 6-(4-Fluorophenyl)-N-[2-(3-methyl-1,2,4-oxadiazol-5-yl)ethyl]nicotinamide] | 429 nM |
| COC(C)(C)CNC(=O)c1ccc(-c2ccc(F)cc2)nc1 [Example 497, 6-(4-Fluorophenyl)-N-(2-methoxy-2-methylpropyl)nicotinamide] | ≥ 1000 nM |
| O=C(NCC1CCCCO1)c1ccc(-c2ccc(F)cc2)nc1 (centres unmarked) [Example 498, 6-(4-Fluorophenyl)-N-(tetrahydro-2H-pyran-2-ylmethyl)nicotinamide] | ≥ 1000 nM |
| O=C(NCc1ccccc1)c1ccc(-c2ccc(F)cc2)nc1 [Example 499, N-Benzyl-6-(4-fluorophenyl)nicotinamide] | 321 nM |
| COC(=O)CNC(=O)c1ccc(-c2ccc(F)cc2)nc1 [Example 500, Methyl N-{[6-(4-fluorophenyl)pyridin-3-yl]carbonyl}glycinate] | ≥ 1000 nM |
| CC(C)[C@H](N)C(=O)NC(=O)c1ccc(-c2ccc(F)cc2)nc1 [Example 501, 6-(4-Fluorophenyl)-N-L-valylnicotinamide] | ≥ 1000 nM |
| CC(NC(=O)c1ccc(-c2ccc(F)cc2)nc1)c1ccncn1 (centres unmarked) [Example 502, 6-(4-Fluorophenyl)-N-(1-pyrimidin-4-ylethyl) nicotinamide] | ≥ 1000 nM |
| CC(C)NC(=O)c1ccc(-c2ccc(F)cc2)nc1 [Example 503, 6-(4-Fluorophenyl)-N-isopropylnicotinamide] | ≥ 1000 nM |
| CS(=O)(=O)c1ccc(CNC(=O)c2ccc(-c3ccc(F)cc3)nc2)cc1 [Example 504, 6-(4-Fluorophenyl)-N-[4-(methylsulfonyl)benzyl] nicotinamide] | 687 nM |
| O=C(NCc1ccc(Br)cc1)c1ccc(-c2ccc(F)cc2)nc1 [Example 505, N-(4-Bromobenzyl)-6-(4-fluorophenyl)nicotinamide] | ≥ 1000 nM |
| CCOC(=O)CC(NC(=O)c1ccc(-c2ccc(F)cc2)nc1)c1ccc(OC)cc1 (centres unmarked) [Example 506, Ethyl 3-({[6-(4-fluorophenyl)pyridin-3-yl]carbonyl}amino)-3-(4-methoxyphenyl)propanoate] | ≥ 1000 nM |
| O=C(NCCc1cccs1)c1ccc(-c2ccc(F)cc2)nc1 [Example 507, 6-(4-Fluorophenyl)-N-[2-(2-thienyl)ethyl]nicotinamide] | 578 nM |
| O=C(NCCNc1ccccc1)c1ccc(-c2ccc(F)cc2)nc1 [Example 508, N-(2-Anilinoethyl)-6-(4-fluorophenyl)nicotinamide] | 412 nM |
| COC(=O)[C@H](Cc1ccc(Cl)cc1)NC(=O)c1ccc(-c2ccc(F)cc2)nc1 [Example 509, Methyl 4-chloro-N-{[6-(4-fluorophenyl)pyridin-3-yl]carbonyl}phenylalaninate] | ≥ 1000 nM |
| COc1cccc(-c2ccc(C(=O)NCc3nnc(-c4cccnc4)[nH]3)cn2)c1 [Example 510, 6-(3-Methoxyphenyl)-N-[(5-pyridin-3-yl-4H-1,2,4-triazol-3-yl)methyl]nicotinamide] | 575 nM |
| COc1cccc(-c2ccc(C(=O)NCCN3CCCCC3)cn2)c1 [Example 511, 6-(3-methoxyphenyl)-N-(2-piperidin-1-ylethyl)nicotinamide] | ≥ 1000 nM |
| CC(C)[C@H](N)C(=O)NC(=O)c1ccc(-c2ccccc2)nc1 [Example 512, 6-Phenyl-N-L-valylnicotinamide] | 359 nM |
| O=C(NCc1ccc(Br)cc1)c1ccc(-c2ccccc2)nc1 [Example 513, N-(4-Bromobenzyl)-6-phenylnicotinamide] | 8.9 nM |
| O=C(NCc1nnc(-c2cccnc2)[nH]1)c1ccc(-c2ccccc2)nc1 [Example 514, 6-Phenyl-N-[(5-pyridin-3-yl-4H-1,2,4-triazol-3-yl)methyl]nicotinamide] | 5.2 nM |
| COc1ccc(NC(=O)c2ccc(-c3ccccc3)nc2)cc1OC [Example 515, N-(3,4-Dimethoxyphenyl)-6-phenylnicotinamide] | 0.95 nM |
| CC(NC(=O)c1ccc(-c2ccccc2)nc1)c1ccccc1 (centres unmarked) [Example 516, 6-Phenyl-N-(1-phenylethyl)nicotinamide] | 31.9 nM |
